Laboratory results: patent publication US20160166570A1, “TREATMENT OR PREVENTION OF NON-INFLAMMATORY NEURONAL DAMAGE FROM BRAIN TRAUMA AND STROKES USING MENTHOL, LINALOOL AND/OR ICILIN” (NESTEC S.A., priority 2013, published 2016)

Key:
[1] = system: Lateral Amygdala glutamatergic neuron; experiment: whole cell, current clamp recordings, square pulse at high depolarization, mouse brain slice; assay type: cell-based; conditions: for action potentials at higher stimulation levels / amount of current required to trigger an action potential / threshold to trigger an action potential: as summarised from the experimental results; for amount of current required to trigger an action potential / threshold to trigger an action potential: neocortex; for inactivation of the sodium fast channels / further neuronal firing relative to control: square pulse of 2.5s at high depolarization of membrane potential (approximately −30 mV), FIG. 2
From the text: (§1) A mouse brain slice was used to study the damage from Menthol, Linalool and Icilin. The amygdaloid complex is located within the medial temporal lobe in neocortex and amygdala. The lateral and basolateral nuclei of the amygdaloid complex receive sensory information from cortical and thalamic structures, process the information, and then transmit the information, either directly or through the basal nucleus, to the central nucleus. For experimental analysis of neuronal activity, synaptic responses from the basolateral complex can be evoked electrically using electrodes, and the action potentials can be measured. […] A square pulse of 2.5s was applied at high depolarization of membrane potential (approximately −30 mV).

[2] = system: Lateral Amygdala glutamatergic neuron; experiment: whole cell, current clamp recordings with increasing concentration of gabazine (spontaneous action potential bursts), mouse brain slice; assay type: cell-based; conditions: Menthol 250 μM extracellularly 10 minutes previous to and during increasing concentrations of gabazine; recordings of 5 min, washout 10 min; FIG. 5 vs FIG. 3
From the text: as §1, with “As shown, neurons spontaneously present action” for “A square pulse of 2.5s was applied at high depolarization of membrane”, “bursts due to massive presynaptic discharges.” for “(approximately −30 mV).”

| SMILES | action potentials at higher stimulation levels [1] | amount of current required to trigger an action potential [1] | threshold to trigger an action potential [1] | inactivation of the sodium fast channels / further neuronal firing relative to control [1] | spontaneous action potential bursts under gabazine [2] |
| --- | --- | --- | --- | --- | --- |
| CC1CCC(C(C)C)C(O)C1 (stereo not shown) [Menthol] | abort action potentials at higher stimulation levels | increase the amount of current required to trigger an action potential | increase the threshold to trigger an action potential | inactivation of the sodium fast channels happens sooner relative to control | complete absence or a strongly decreased presence of spontaneous bursts |
| C=CC(C)(O)CCC=C(C)C (stereo not shown) [Linalool] | abort action potentials at higher stimulation levels | increase the amount of current required to trigger an action potential | increase the threshold to trigger an action potential | inactivation of the sodium fast channels happens sooner relative to control |  |
| O=C1NC(c2cccc([N+](=O)[O-])c2)=CCN1c1ccccc1O [Icilin] | abort action potentials at higher stimulation levels | increase the amount of current required to trigger an action potential | increase the threshold to trigger an action potential | inactivation of the sodium fast channels happens sooner relative to control |  |
